Assay results reported in EP0994713B1, “USE OF A 7alpha-METHYL-17alpha-ETHYNYL-ESTRANE DERIVATIVE FOR THE TREATMENT OF ATHEROSCLEROSIS” (Akzo Nobel N.V., priority 1997, dated 1998).

Columns and labels:
Type in all cases: in vivo, New Zealand White rabbits
[1] = tested on: female ovariectomized rabbits; test: Vessel wall cholesterol measurement in the aortic arch; details: for Cholesterol level in aortic arch: cholesterol diet, OVX, necropsy at 20 weeks
Method: (§1) The model is considered relevant to the human atherosclerotic process, because the cellular events occurring during the development of the atherosclerotic lesions during the atherogenic diet are similar to those observed in different stages of atherosclerotic processes in coronary arteries.
(§2) An experiment was performed with 7 groups of sexually mature, virgin female New Zealand White rabbits (Harlan, Zeist, The Netherlands), age 7-9 months and weighing approximately 3 kg (number of […] per group: 13-14). During the acclimatization period the rabbits were fed a diet of standard commercial rabbit chow LKK20 (Hope Farms, Woerden, The Netherlands). Three weeks prior to the start of the experiment the animals were anaesthetized and underwent bilateral ovariectomy (OVX) or were sham operated. After three weeks, at the start of the experiment, the rabbits were randomized over the treatment groups.
(§3) The animals were randomly allocated into 7 experimental groups using a randomized block design. […] One group was fed the standard rabbit chow (LKK20). Food intake was restricted to 80 grams daily.
(§4) Groups 1, 2 and 3 were on a daily placebo treatment. Groups 4-5 were treated with 7α-methyl-17α-ethynyl-17β-hydroxy-estra-5(10)-en-3-one (OD-14; tibolone; 6 or 2 mg daily); group 6 with 17β-estradiol (4 mg daily). Group 7 was on treatment with 17β-estradiol decanoate (150 µg in 1 ml arachis oil injected subcutaneously once a week).
(§5) During the experiment blood samples were drawn out of the central ear artery after sedation with Hypnorm (0.1 ml i.m.) (Janssen Pharmaceutics, Beerse, Belgium) before the daily treatment, at week 4,8,12,16 and 20, to monitor the plasma cholesterol levels and to measure, at week 17, plasma estradiol levels and plasma tibolone levels. Twenty weeks after the start of the experiment animals were anaesthetized by an i.m. injection of Hypnorm (0.5 ml/kg). After blood sampling the rabbits were killed by exsanguination and the aortic arch, uterus and carotid artery removed for further analyses.
(§6) Three weeks prior to the start of the experiment the animals were ovariectomized. At the start of the experiment the carotid artery was de-endothelialised using the air-drying technique. The normal rabbit chow was replaced by the atherogenic diet except for the control group which received during the experiment the normal rabbit chow.
(§7) Group 5 was on treatment with 17β-estradiol decanoate (300 µg in 1 ml arachis oil injected subcutaneously once a week).
The amount of protein in the tissue was determined by the method of Lowry.

[2] = tested on: female ovariectomized rabbits; test: Uterus weight (estrogenic activity), cholesterol fed rabbit model; details: for Uterus weight per 100 grams body weight: cholesterol diet, OVX, necropsy at 20 weeks
Method: as §1
as §2, with “groups. In all animals de-endothelialisation of a segment of the left carotid artery was applied by using the air-drying technique (Fishman, J.A. et al., "Endothelial regeneration in the rat carotid artery and the significance of endothelial denudation in the pathogenesis of myointimal thickening", Lab. Invest. 1975, 32, 339-351; and Lafont, A. et al., "Restenosis and experimental angioplasty: Intimal, medial and adventitial changes associated with constructive remodeling", Circulation Research, 1995, 76, 996-1002)” for “groups.”
The animals were randomly allocated into 7 experimental groups using a randomized block design. The groups were fed an atherogenic diet (commercial rabbit chow (LKK20) enriched with 0.4 grams cholesterol, 3.75 grams coconut oil and 3.75 grams peanut oil per 100 grams). One group was fed the standard rabbit chow (LKK20). Food intake was restricted to 80 grams daily.
as §4, with “The treatments (Table I) were daily administered orally as a tablet, prepared as in Example 1. Groups 1,” for “Groups 1,”
as §5
In addition to example 2 an additional experiment was performed with two lower doses of Org OD14 and a higher dose of estradiol decanoate. […] The procedures were identical to those in example 2.
as §6
The treatments (table II) of group 1, 2, 3 and 4 were daily administered orally as a tablet, prepared as in example 1. The doses of Org OD14 per tablet, however, were 0.6 mg and 0.15 mg respectively. Group 5 was on treatment with 17β-estradiol decanoate (300 µg in 1 ml arachis oil injected subcutaneously once a week). Twenty weeks after the start of the experiment was ended in the same manner as described in example 2.
After 20 weeks of diet and of daily treatment, necropsy was performed to determine the accumulation of cholesterol and fatty streaks in the aortic arch and the advanced lesions in the carotid artery. […]

[3] = tested on: female ovariectomized rabbits; test: Plasma cholesterol levels, cholesterol fed rabbit model; details: for Mean plasma cholesterol exposure: cholesterol diet, OVX, 20 weeks
Method: as §1, §2, §3, §4, §5, §6, §7

[4] = Example 2, Group 4: 6 mg orally daily
[5] = Example 2, Group 5: 2 mg orally daily
[6] = Example 3: 0.15 mg orally once daily
[7] = Example 3: 0.6 mg orally once daily

## C#C[C@]1(O)CC[C@H]2[C@@H]3[C@H](C)CC4=C(CCC(=O)C4)[C@H]3CC[C@@]21C [Org OD14, 7α-methyl-17α-ethynyl-17β-hydroxy-estra-5(10)-en-3-one]
[1]; [4]
  Cholesterol level in aortic arch: 52 ± 9 nmol/mg protein
[1]; [5]
  Cholesterol level in aortic arch: 61 ± 11 nmol/mg protein
[1]; Example 2: Org OD14 2 and 6 mg, E2 4 mg orally daily
  cholesterol accumulation in the aortic arch (in words): completely prevented cholesterol accumulation
[1]; [6]
  Cholesterol level in aortic arch: 297 ± 67 nmol/mg protein
[1]; [7]
  Cholesterol level in aortic arch: 97 ± 23 nmol/mg protein
[2]; [4]
  Uterus weight per 100 grams body weight: 0.24 ±0.06 per 100 grams body weight
[2]; [5]
  Uterus weight per 100 grams body weight: 0.29 ±0.03 per 100 grams body weight
[2]; Example 2: Org OD14 2 and 6 mg per day
  uterus weight increase (estrogenic activity, in words): to a similar extent as both estradiol treatments
[2]; Example 3, text: Org OD14 (0.15 mg dose per Table IV), versus placebo 0.054
  increase of uterus weight: 144%
[2]; Example 3, text: Org OD14 (0.15 mg dose per Table IV), placebo 0.054
  uterus weight: 0.132 grams per 100 grams body weigh
[2]; [6]
  Uterus weight per 100 grams body weight: 0.132 ±0.013 per 100 grams body weight
[2]; [7]
  Uterus weight per 100 grams body weight: 0.224 ±0.016 per 100 grams body weight
[3]; [4]
  Mean plasma cholesterol exposure: 11.2 ± 1.5 mmol/L/day
[3]; [5]
  Mean plasma cholesterol exposure: 9.0 ± 1.3 mmol/L/day
[3]; Example 2: Org OD14 2 and 6 mg, E2 4 mg orally daily, E2D 150 µg s.c. weekly
  plasma cholesterol levels (in words): strongly reduced the plasma cholesterol levels
[3]; [6]
  Mean plasma cholesterol exposure: 20.7 ± 1.5 mmol/L/day
[3]; [7]
  Mean plasma cholesterol exposure: 12.8 ± 1.2 mmol/L/day
